Results taken from patent publication US20250312469A1 (CANGET BIOTEKPHARMA, priority 2024, published 2025).
Several values for one entry are separate records, joined by “and”; a condition that tells them apart may be missing. Equal entries are not always repeated.

Assays:
WP2-uvrA = test: Ames Bacterial Reverse Mutation Assay; conditions: for Background Lawn Code / Colony Counts Average / Colony Counts Replicate 1-3: WP2-uvrA
Description: The Ames Bacterial Reverse Mutation (AB™) used five bacterial tester strains (TA97a, TA98, TA100, TA1535, WP2-uvrA).
Tester strains were added to flasks containing nutrient broth and incubated at 37+2° C. overnight. The flasks were removed from the overnight incubation and the final concentration was determined (the OD was measured and determined whether growth was suitable for testing). Top agar was melted, and 2.0 mL was dispensed into heated culture tubes. The S9 mix (metabolic activation) was prepared and stored on ice. […] Each culture tube was vortexed and immediately poured onto the labeled minimal glucose agar plates. All plates were inverted and placed into a 37±1° C. incubator for 48-72 hours. The plates were counted via an automated colony counter or by hand and the background lawn was microscopically evaluated for any signs of toxicity. Genotypic control plates were prepared for each tester strain and incubated for 24-72 hours at 37±1° C.

[1] = assay type: physicochemical; conditions: solid state of powder
Description: Laboratory XRPD patterns from the samples will be collected at 25° C. The diffraction data were collected over the angular range of 2θ=3°−40° with a step size of 2θ=0.02° and accounting time of 0.12 s/step.

[2] = biological target: T1, bovine serum albumin (BSA) (Bos taurus, UniProt P02769); test: 3H-FL118 binding, Nanosep 3K centrifugal device; conditions: negative control protein
T1 construct: purchased EMD (Billerica, MA)
Description: (§1) Then, 5-10 μg of the FLAGR M Purification Kit (Signa)-purified Flag-USP2a and Flag-UbE2T proteins in a volume of 20-50 μL, respectively, was transferred into the sample reservoir of a 1.5 mL Nanosep 3K Centrifugal Device. In parallel, a negative control Nanosep 3K Centrifugal Devices containing 10 μg bovine serum albumin (BSA) in 50 μL volume was also set up. Then, the 3 prepared Nanosep 3K Devices were centrifuged at 10,000 rpm for 10-15 min to eliminate the solution and retain the proteins in the sample reservoir. […] Lastly, all three of the sample reservoir devices were transferred into a scintillation vial containing enough scintillation solution to cover the entire sample reservoir devices for tritium (3H) counting on the LS 6500 Scintillation System (Backman Couler™).

[3] = test system: LAPC9-AI vs. LAPC9-AD cells; test: LAPC9 organoid assay; assay type: cell-based
[4] = test system: Panc-1, BxPC-3 and MiaPaca-2 cells; test: Cell monolayer wound healing test; assay type: cell-based, human
Description: Representative cell migration wound healing images were taken at zero hour and wound healing for 48-72 hours.

UbE2T = biological target: T2, UbE2T (Homo sapiens, UniProt Q9NPD8); test: 3H-FL118 binding, Nanosep 3K centrifugal device; parameters: host or cells: HEK293T; conditions: hot FL118 solution 10 μM
T2 sequence (Q9NPD8 1-197): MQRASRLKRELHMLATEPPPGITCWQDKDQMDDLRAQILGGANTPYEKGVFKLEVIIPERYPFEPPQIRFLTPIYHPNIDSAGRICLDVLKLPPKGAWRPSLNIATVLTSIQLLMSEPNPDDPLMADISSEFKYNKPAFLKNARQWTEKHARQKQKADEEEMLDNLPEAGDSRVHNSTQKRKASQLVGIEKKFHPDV
Description: as §1

USP2a = biological target: T3, USP2a (Homo sapiens, UniProt O75604); test: 3H-FL118 binding, Nanosep 3K centrifugal device; parameters: host or cells: HEK293T
T3 sequence (O75604 1-605): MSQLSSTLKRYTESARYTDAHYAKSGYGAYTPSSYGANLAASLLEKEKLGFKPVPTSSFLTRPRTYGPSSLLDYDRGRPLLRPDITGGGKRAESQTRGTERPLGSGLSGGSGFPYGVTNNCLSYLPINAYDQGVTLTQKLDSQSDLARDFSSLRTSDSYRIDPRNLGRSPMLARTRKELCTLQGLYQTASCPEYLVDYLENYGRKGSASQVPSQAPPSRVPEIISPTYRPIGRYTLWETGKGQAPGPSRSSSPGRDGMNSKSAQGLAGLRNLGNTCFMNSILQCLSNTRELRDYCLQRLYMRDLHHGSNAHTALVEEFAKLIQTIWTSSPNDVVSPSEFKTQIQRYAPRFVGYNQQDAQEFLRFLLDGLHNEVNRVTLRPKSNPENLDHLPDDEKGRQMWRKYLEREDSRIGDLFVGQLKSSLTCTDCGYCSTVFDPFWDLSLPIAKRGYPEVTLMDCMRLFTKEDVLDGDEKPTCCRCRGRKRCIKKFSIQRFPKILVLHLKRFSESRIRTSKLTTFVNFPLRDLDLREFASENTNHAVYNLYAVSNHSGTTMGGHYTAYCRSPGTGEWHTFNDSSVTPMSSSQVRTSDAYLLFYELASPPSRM
Description: as §1

[5] = test system: pancreatic cancer PDX tumor (PDX14244) tissues; test: Ex vivo culture of pancreatic cancer PDX tumor tissue; assay type: cell-based, human; conditions: 7 days
From the text: Pancreatic cancer patient-derived xenograft (PDX) tumor (PDX14244) in vitro culture and studies: PDX14244 tumors were collected from SCID mice, and the isolated tumors were maintained in PBS solution. Then cut the fresh tumor tissues into many small pieces (e.g., 2×2×2 mm) and the left tumors were frozen for other use. The small pieces of tumor tissues were washed twice in PBS and then added onto the stiff gel prepared at the ratio of gel: PBS=1:1 in the 24-well plate (2-3 pieces per well). […] On day 3, replace the old medium content with freshly prepared same medium content. On day 7, the cultured PDX14244 tumor tissues were taken out and representative images were taken under microscopes, and the tumor tissues were transferred into a fresh 24-well plate and immediately fixed in 10% neutral buffered formalin (NBF) for 24 hours ad then replaced NBF with 70% ethanol for 1-4 days for paraffin embedding to make block cassettes for histology analysis. Tissue blocks were cut and H&E staining for tumor tissue stroma ECM stiffness (desmoplasia) observation.

P-gp = test: in vitro; conditions: human
Description: Cell monolayers were grown to confluence on collagen-coated, microporous, polycarbonate membranes in 12-well Costar Transwell R plates. […] The permeability assay buffer was Hanks' balanced salt solution (HBSS) containing 10 mM HEPES and 15 mM glucose at a pH of 7.4. The buffer in the receiver chamber also contained 1% bovine serum albumin. […] Cells were first pre-incubated for 30 minutes with HBSS containing+/−1 μM valspodar. Cell monolayers were dosed on the apical side (A-to-B) or basolateral side (B-to-A) and incubated at 37° C. with 5% CO2 in a humidified incubator. Samples were taken from the donor and receiver chambers at 120 minutes. Each determination was performed in duplicate. The flux of co-dosed lucifer yellow was also measured for each monolayer to ensure no damage was inflicted to the cell monolayers during the flux period. All samples were assayed by LC-MS/MS using electrospray ionization. […] The apparent permeability (Papp) and percent recovery were calculated as follows:
Where, dCr/dt is the slope of the cumulative concentration in the receiver compartment versus time in μM s^−1;Vr is the volume of the receiver compartment in. cm^3; Vd is the volume of the donor compartment in cm^3; A is the area of the insert (1.13 cm^2 for 12-well Transwell); CA is the average of the nominal dosing concentration and the measured 120 minute donor concentration in μM; CN is the nominal concentration of the dosing solution in μM; Cr^Final is the cumulative receiver concentration in μM at the end of the incubation period; and Cd^Final is the concentration of the donor in μM at the end of the incubation period.
Efflux ratio (ER) is defined as Papp (B-to-A)/Papp (A-to-B)

[6] = test system: p53, Mdm2, AR, AR-Vs, c-Myc, MdmX; test: Western blot/RT-PCR of p53, Mdm2, AR, AR-Vs, c-Myc, MdmX in PCa cells; assay type: cell-based, human
Description: Cells were then lysed to determine the expression of AR, AR-Vs, p53, p21, Mdm2, MdmX, and c-Myc as well as PARP cleavage (apoptosis hallmark) using their corresponding antibodies by WB.
Twenty to fifty μg total protein from each sample (cell lysis or tumor tissue lysis) were heated at 95° C. for 5 minutes after mixing with equal volumes of 2× SDS loading buffer. […] Next, the membrane was incubated with different primary antibodies in TBS-T containing 5% BSA overnight at 4° C. in the range of dilutions from 1:500 to 1:2000 based on the antibody dilution recommended by antibody firms. […] Proteins of interest were detected using Western Lightning ECL-Plus (Perkin Elmer, Waltham, MA) and visualized by various times (3-120 seconds) of exposure. Actin, tubulin and/or GAPDH were detected as the internal control to normalize total protein loading for each sample.
Pertinent to this study, total RNAs were extracted from cancer cells using TRI REAGENT RT (Molecular Research Center), and 5 μg per sample was converted to cDNA with anchored oligo (dT) primers using RevertAid First Strand cDNA Synthesis Kit (Thermo Fisher Scientific, Catalog No. K1622) following the manufacturer's instructions. […] The data were analyzed using the Applied Biosystems 7300 Real Time PCR System and normalized to GAPDH.

T1 sequence (P02769 25-607): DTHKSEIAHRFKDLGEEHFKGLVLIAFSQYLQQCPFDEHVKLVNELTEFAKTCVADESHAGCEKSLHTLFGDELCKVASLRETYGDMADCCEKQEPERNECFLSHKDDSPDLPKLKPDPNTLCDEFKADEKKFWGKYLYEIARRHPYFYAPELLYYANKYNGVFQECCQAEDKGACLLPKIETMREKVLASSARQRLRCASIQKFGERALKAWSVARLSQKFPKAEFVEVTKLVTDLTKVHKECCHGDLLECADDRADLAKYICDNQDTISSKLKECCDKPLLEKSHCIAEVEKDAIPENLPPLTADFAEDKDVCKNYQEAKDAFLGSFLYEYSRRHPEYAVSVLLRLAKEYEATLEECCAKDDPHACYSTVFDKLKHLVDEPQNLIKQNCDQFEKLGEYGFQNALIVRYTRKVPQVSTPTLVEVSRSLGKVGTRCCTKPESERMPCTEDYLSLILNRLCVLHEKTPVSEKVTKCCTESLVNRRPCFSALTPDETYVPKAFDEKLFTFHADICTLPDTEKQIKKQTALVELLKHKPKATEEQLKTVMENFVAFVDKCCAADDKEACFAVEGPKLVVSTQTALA

CCC1(O)C(=O)OCc2c1cc1n(c2=O)Cc2cc3cc4c(cc3nc2-1)OCO4 (centres unmarked) [FL118]
bacterial strain mutation (WP2-uvrA): does not induce
mean revertant colonies over negative control (WP2-uvrA; +/− S9): less than 2 fold
Background Lawn Code (WP2-uvrA; 0.010 μM +S9): 1
Colony Counts Average (WP2-uvrA; 0.010 μM +S9): 40
Colony Counts Replicate 1-3 (WP2-uvrA; 0.010 μM +S9): 38 and 47 and 34
Background Lawn Code (WP2-uvrA; 0.010 μM −S9): 1
Colony Counts Average (WP2-uvrA; 0.010 μM −S9): 29
Colony Counts Replicate 1-3 (WP2-uvrA; 0.010 μM −S9): 35 and 22 and 31
Background Lawn Code (WP2-uvrA; 0.10 μM +S9): 1
Colony Counts Average (WP2-uvrA; 0.10 μM +S9): 47
Colony Counts Replicate 1-3 (WP2-uvrA; 0.10 μM +S9): 48 and 38 and 54
Background Lawn Code (WP2-uvrA; 0.10 μM −S9): 1
Colony Counts Average (WP2-uvrA; 0.10 μM −S9): 30
Colony Counts Replicate 1-3 (WP2-uvrA; 0.10 μM −S9): 27 (2×) and 36
Background Lawn Code (WP2-uvrA; 1.0 μM +S9): 1
Colony Counts Average (WP2-uvrA; 1.0 μM +S9): 39
Colony Counts Replicate 1-3 (WP2-uvrA; 1.0 μM +S9): 35 and 38 and 43
Background Lawn Code (WP2-uvrA; 1.0 μM −S9): 1
Colony Counts Average (WP2-uvrA; 1.0 μM −S9): 27
Colony Counts Replicate 1-3 (WP2-uvrA; 1.0 μM −S9): 27 and 31 and 24
XRPD [1]: Weak crystal
3H CPM counts in retained parts [2]: 4,230 ± 370 CPM
toxicity to AR−/lo LAPC9-AI vs AR+ LAPC9-AD cells [3]: selective toxicity
cell migration wound healing [4]: exhibited cell migration wound healing defect
3H CPM counts in retained parts (UbE2T): 52,382 ± 1930 CPM
binding of 3H-FL118 to USP2a and UbE2T versus BSA (USP2a; 3H counts per min): 10-20 fold
3H CPM counts in retained parts (USP2a; hot FL118 solution 10 μM): 97,436 ± 2960 CPM
cell and stroma spreading from tissue edge [5]: effectively inhibit the pancreatic cancer cells and stroma spreading
tumor stroma intensity (H&E) [5]: significantly tumor stroma intensity loose
Papp A→B at 120 min, 1 μM (P-gp; Caco-2, pH 7.4, Papp AVG, Caco-2, A-to-B, without valspodar): 6.97 ×10⁻⁶ cm/s
Papp B→A at 120 min, 1 μM (P-gp; Caco-2, pH 7.4, Papp AVG, Caco-2, B-to-A, without valspodar): 8.1 ×10⁻⁶ cm/s
Papp A→B at 120 min, 1 μM (P-gp; Caco-2, pH 7.4, Papp R1, Caco-2, A-to-B, without valspodar): 7.27 ×10⁻⁶ cm/s
Papp B→A at 120 min, 1 μM (P-gp; Caco-2, pH 7.4, Papp R1, Caco-2, B-to-A, without valspodar): 7.35 ×10⁻⁶ cm/s
Papp A→B at 120 min, 1 μM (P-gp; Caco-2, pH 7.4, Papp R2, Caco-2, A-to-B, without valspodar): 6.67 ×10⁻⁶ cm/s
Papp B→A at 120 min, 1 μM (P-gp; Caco-2, pH 7.4, Papp R2, Caco-2, B-to-A, without valspodar): 8.86 ×10⁻⁶ cm/s
recovery at 120 min, 1 µM (P-gp; Caco-2, pH 7.4, Recovery (%), Caco-2, A-to-B, without valspodar): 43%
recovery at 120 min, 1 µM (P-gp; Caco-2, pH 7.4, Recovery (%), Caco-2, B-to-A, without valspodar): 48%
recovery at 120 min, 1 µM (P-gp; Caco-2, pH 7.4, with valspodar 1 µM, Recovery (%), Caco-2, A-to-B, + 1 μM Valspodar): 46%
recovery at 120 min, 1 µM (P-gp; Caco-2, pH 7.4, with valspodar 1 µM, Recovery (%), Caco-2, B-to-A, + 1 μM Valspodar): 48%
AR mRNA [6]: decrease AR mRNA levels
expression of p53, Mdm2, AR, AR-Vs, MdmX, c-Myc [6]: induces the expression of p53 (p21 increase is a hallmark of p53 activation) and Mdm2 but inhibits AR, AR-Vs, MdmX, and c-Myc
